Assay results taken from US7148193B2, “Compounds that bind to growth hormone receptor” (Antyra, Inc., priority 1997, dated 2006).
Where a SMILES comes first, the peptide text is derived from it. Bridges are numbered along the chain shown (N, C = ends).

Molecular target: T1, rGHBP (Rattus norvegicus, UniProt P16310)
T1 construct: 1–48 of GHBP; The 3′ oligo used for this reaction encoded the mutation L43R (CTG→AGA); The second PCR reaction amplified the DNA encoding amino acids 38–260; 6xHis; made in house
T1 sequence (P16310 19-278 isoform P16310-2): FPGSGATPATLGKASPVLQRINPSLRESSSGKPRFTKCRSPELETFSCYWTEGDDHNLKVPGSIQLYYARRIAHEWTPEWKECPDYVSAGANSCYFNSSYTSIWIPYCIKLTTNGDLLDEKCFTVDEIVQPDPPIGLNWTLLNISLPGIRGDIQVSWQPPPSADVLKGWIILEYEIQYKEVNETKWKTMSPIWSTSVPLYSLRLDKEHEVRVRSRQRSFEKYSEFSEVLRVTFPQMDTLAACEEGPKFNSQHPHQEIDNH
Test: Species specificity of binding by ELISA and BIAcore, rGHBP
Conditions: in words
Method: Wells were coated with either recombinant rGHBP or ‘hu’ GHBP (100 ng/well). Additions of H5 (SEQ ID NO:8) and H10 (SEQ ID NOS:9, 80, and 81) phage (10^10/well) and detection were made as described. […] Streptavidin chips were coated with H5 (SEQ ID NO:8) to 1100 RU as described and rGHBP or ‘hu’ GHBP (500 μg/ml) injected as 30 μl samples.
Growth hormone receptors from different species bind human GH as well as their own GH, however human GHR only binds human or monkey GH. […] The sequence of rGHBP was altered by PCR to create a “humanized” version (‘hu’ GHBP; FIG. 9A). Partially purified ‘hu’GHBP (FIG. 9B) was tested for binding using ELISA and BIAcore analysis. […] This was confirmed by BIAcore analysis (FIG. 10B).
The biotinylated control peptide (SEQ ID NO:10) was immobilized onto one flow cell of a SA-5 (streptavidin coated) sensor chip to a final density of 700 RU. On a second flow cell, either hGH (1100 RU final density), H5WT peptide (SEQ ID NO:8; 1100 RU final density), or bGH (730 RU final density) was immobilized. GHBP (either rat or humanized) was injected at a concentration of 500 μg/ml with a flow rate of 5 μl/min. Background binding to the control surface was subtracted prior to further analysis.

CC(C)C[C@@H]1NC(=O)[C@H](CO)NC(=O)[C@H](CCC(N)=O)NC(=O)[C@@H](NC(=O)[C@H](CC(C)C)NC(=O)[C@H](CC(=O)O)NC(=O)[C@H](CCCCN)NC(=O)[C@H](Cc2ccc(O)cc2)NC(=O)[C@@H](N)CC(=O)O)CSSC[C@@H](C(=O)N[C@@H](C)C(=O)N[C@@H](CCCCN)C(=O)N[C@@H](CCCCN)C(=O)O)NC(=O)[C@H](Cc2c[nH]c3ccccc23)NC(=O)CNC(=O)[C@H](C)NC(=O)[C@H](CC(C)C)NC(=O)[C@H](Cc2c[nH]c3ccccc23)NC(=O)CNC(=O)[C@@H]2CCCN2C(=O)[C@H](Cc2ccc(O)cc2)NC(=O)[C@H]([C@@H](C)O)NC(=O)[C@H](C(C)C)NC(=O)CNC1=O [H5] (H-DYKDLCQSLGVTYPGWLAGWCAKK-OH; disulfide 6-21; N-terminus and C-terminus assumed)
binding to rGHBP: bound to rGHBP
